# Data published in patent US20040191297A1, “Carotenoid formulation” (priority 1997, published 2004).
# What was measured:
# [1] = in vivo; details: Fischer 344, rat
# Protocol: Breast, liver and prostate tissue contain lipids which interfere with the assay. Consequently, a saponification step was required prior to organic extraction. Tissue was homogenized in 20 ml methanol to which echinenone was added as internal standard. For breast tissue, which comprise of 85% adipocytes, 8.0 ml 50% NaOH and 4.0 ml 25% sodium ascorbate was added and the mixture was homogenized. For prostate and liver tissue, which contain less lipid, 4.0 ml and 50% NaOH. and 2.0 ml sodium ascorbate were added and the mixture was
# homogenized. Saponification was carried out in 50 ml tubes saturated with N2 gas overnight in a temperature controlled shaker bath at 30° C. Following saponification, 10 ml hexane was add d to each tube and vortexed for 1 minute. The mixture was then centrifuged at 2000 rpm for 10 min at 4° C. and the hexane layer was decanted and saved. This hexane extraction procedure was repeated 5-7 times. The pooled hexane extract was then dried under N2 gas at 60° C., dissolved in injection solvent and analyzed by HPLC. Lung and colon tissue were processed in an identical manner with the exception that the saponification step was omitted.
# [2] = system: glutathione; assay: Total glutathione assays of blood, liver and kidney; assay type: in vivo, Fischer 344 rats
# Description: The rationale for measuring glutathione is that the reduced form of the tripeptide thiol, glutathione (Glu-Cys-Gly), participates directly in several key intracellular reactions, including protection against free radical damage. In contrast to carotenoids, which reside in the lipid phase, glutathione is found in the aqueous phase of the cell and there is evidence that lipid and aqueous phase anti-oxidants may interact with one another in such a manner that high levels of one may “spare” or limit the deletion of the other. Total (reduced and oxidized) glutathione assays of blood, liver and kidney (Tables 20-22) were conducted.
# The determination of glutathione was by HPLC with dual electrochemical detection (see Kleinman, W. A. & Richie, J. P., J. Chromatogr B 672:73-80, 1995). only 1 case, at the highest lycopene level, was there a significant increase in glutathione levels and this occurred only in the liver.
# [3] = system: retinol; assay: Liver vitamin A assay; assay type: in vivo, Fischer 344 rats; details: male
# [4] = Lycopene content of rat serum; assay type: in vivo, Fischer 344 rats
# Protocol: (§1) Prior to termination, 3 animals from each group were placed in metabolic cages and 24-hour urine and fecal collections made for subsequent lycopene assay. Blood was collected by heart puncture under anesthesia for lycopene assay and all animals were sacrificed by CO2 anesthesia. Blood and feces were stored at −20° C. At necropsy, all major organ systems were grossly inspected. Any unusual appearing tissues were placed in formalin and saved for later histological examination.
# Extraction of lycopene from serum was conducted by adding 1 ml of serum to 0.1 ml echinenone standard in ethanol and 0.9 ml ethanol. The mixture was then vortexed for 20 seconds, and 2.0 ml hexane added and mixed vigorously for 1 minute. The cloudy mixture was then centrifuged at 3,000 rpm for 15 minutes at 4° C. and the clear hexane layer was decanted. The above procedure was repeated 3-5×. The pooled hexane fraction was then dried under N2 gas at 60° C., and the residue dissolved in 0.5 ml HPLC solvent and analyzed by HPLC.
# [5] = Lycopene content of rat prostate gland; assay type: in vivo, Fischer 344 rats; details: male
# Description: homogenized. […] This hexane extraction procedure was repeated 5-7 times.
# [6] = system: α-tocopherol; assay: Liver vitamin E assay; assay type: in vivo, Fischer 344 rats; details: for Liver α-tocopherol: female
# Description: The effect of the tomato carotenoid supplement on the absorption and storage of two important fat soluble vitamins, namely, retinol and α-tocopherol, was investigated. Using established HPLC methods, a strong liner dose-response relationship was found between the lycopene content of the liver and both retinol and a-tocopherol concentration in female R-344 rats (Table 23).
# [7] = Fecal lycopene analysis (24 hour fecal pellets); assay type: in vivo, rat; details: for Fecal lycopene: male rat, 744 μg/g in diet
# Protocol: as §1
# Extraction of lycopene from diet was as follows: A sample of diet containing lycopene was suspended in the injection solvent (Table 4) and homogenized in a polytron homogenizer. Echinenone was added as an internal standard and the mixture centrifuged at 3000 rpm at 4° C. for 15 minutes. The supernatant was decanted and saved and the extraction repeated. The pooled extracts were then dried under N2 gas at 60° C. and the residue dissolved in 0.5 ml injection solvent and then subjected to HPLC analysis. The same method, with minor variations, was used for feces and for lung tissue. The efficiency of lycopene extraction from the diet is shown in Table 6 A&B. At any concentration tested the efficiency ranged from 75% at the highest concentration to 100% for the lowest concentration of lycopene.
# The possibility that some lycopene decomposed upon storage prior to extraction must also be considered. […] This, no doubt, is due to the presence of water in the fecal pellet and to the geometry of the pellet. Once freeze-dried, the fecal pellet can easily be powdered, permitting easier access of the solvent to the fecal matrix.
# [8] = female, Group 1 (1280 mg/kg diet)
# [9] = female, Group 2 (512 mg/kg diet)
# [10] = female, Group 3 (256 mg/kg diet)
# [11] = female, Group 5 (51 mg/kg diet)
# [12] = male, Group 1 (1280 mg/kg diet)
# [13] = lyophilization + organic extraction
structure (smiles),measurement,setting,value
CC(C)=CCC/C(C)=C/C=C/C(C)=C/C=C/C(C)=C/C=C/C=C(C)/C=C/C=C(C)/C=C/C=C(\C)CCC=C(C)C [Lycopene],Kp,[1],100 to 1000
same,Kidney glutathione,"[2]; female, lycopene 51 ppm",0.900 ± 0.101^ μmol/g
same,Liver glutathione,"[2]; female, lycopene 51 ppm",6.01 ± 0.309 µmol/g
same,Whole blood glutathione,"[2]; female, lycopene 51 ppm",0.832 ± 0.158^+ μmol/g
same,Kidney glutathione,"[2]; female, lycopene 128 ppm",0.950 ± 0.0758^ μmol/g
same,Liver glutathione,"[2]; female, lycopene 128 ppm",6.54 ± 1.09^+ μmol/g
same,Whole blood glutathione,"[2]; female, lycopene 128 ppm",0.890 ± 0.202 µmol/g
same,Kidney glutathione,"[2]; female, lycopene 256 ppm",1.030 ± 0.414^+ μmol/g
same,Liver glutathione,"[2]; female, lycopene 256 ppm",4.87 ± 1.14 µmol/g
same,Whole blood glutathione,"[2]; female, lycopene 256 ppm",0.848 ± 0.0988 µmol/g
same,Kidney glutathione,"[2]; female, lycopene 512 ppm",1.090 ± 0.163^+ μmol/g
same,Liver glutathione,"[2]; female, lycopene 512 ppm",5.88 ± 0.492 µmol/g
same,Whole blood glutathione,"[2]; female, lycopene 512 ppm",0.930 ± 0.123 µmol/g
same,Kidney glutathione,"[2]; female, lycopene 1280 ppm",0.089 ± 0.045^+ μmol/g
same,Liver glutathione,"[2]; female, lycopene 1280 ppm",7.38 ± 0.705^+ μmol/g
same,Whole blood glutathione,"[2]; female, lycopene 1280 ppm",1.080 ± 0.104 µmol/g
same,dose-related changes in glutathione,"[2]; liver, kidney or whole blood",No dose-related changes
same,Kidney glutathione,"[2]; male, lycopene 51 ppm",0.688 ± 0.316 µmol/g
same,Liver glutathione,"[2]; male, lycopene 51 ppm",6.77 ± 1.53 µmol/g
same,Whole blood glutathione,"[2]; male, lycopene 51 ppm",1.030 ± 0.0387 µmol/g
same,Kidney glutathione,"[2]; male, lycopene 128 ppm",0.686 ± 0.170 µmol/g
same,Liver glutathione,"[2]; male, lycopene 128 ppm",5.38 ± 0.363 µmol/g
same,Whole blood glutathione,"[2]; male, lycopene 128 ppm",0.920 ± 0.169 µmol/g
same,Kidney glutathione,"[2]; male, lycopene 256 ppm",0.624 ± 0.104 µmol/g
same,Liver glutathione,"[2]; male, lycopene 256 ppm",4.59 ± 1.37 µmol/g
same,Whole blood glutathione,"[2]; male, lycopene 256 ppm",0.910 ± 0.106 µmol/g
same,Kidney glutathione,"[2]; male, lycopene 512 ppm",0.854 ± 0.055^+ μmol/g
same,Whole blood glutathione,"[2]; male, lycopene 512 ppm",0.990 ± 0.141 µmol/g
same,Kidney glutathione,"[2]; male, lycopene 1280 ppm",0.828 ± 0.128^+ μmol/g
same,Liver glutathione,"[2]; male, lycopene 1280 ppm",7.16 ± 1.95^+ μmol/g
same,Whole blood glutathione,"[2]; male, lycopene 1280 ppm",0.948 ± 0.294 µmol/g
same,Liver retinol,"[3]; Group 7, lycopene 1280 mg/kg diet",388 μg/gm
same,Liver retinol,"[3]; Group 8, lycopene 512 mg/kg diet",119 μg/gm
same,Liver retinol,"[3]; Group 9, lycopene 256 mg/kg diet",584 μg/gm
same,Liver retinol,"[3]; Group 11, lycopene 51 mg/kg diet",454 μg/gm
same,concentration at 10 weeks,"[4]; both sexes, Fischer 344, rat, serum, oral, all supplemented groups, males and females, read-out: Serum lycopene levels, overall low to high",80 to 370 ng/mL
same,"Lycopene content of serum, Median",[4]; [8],205 ng/mL
same,"Lycopene content of serum, Range",[4]; [8],123 to 232 ng/mL
same,"Lycopene content of serum, mean ± SD",[4]; [8],187 ± 043 ng/mL
same,"Lycopene content of serum, Median",[4]; [9],180 ng/mL
same,"Lycopene content of serum, Range",[4]; [9],109 to 211 ng/mL
same,"Lycopene content of serum, mean ± SD",[4]; [9],169 ± 042 ng/mL
same,"Lycopene content of serum, Median",[4]; [10],210 ng/mL
same,"Lycopene content of serum, Range",[4]; [10],174 to 366 ng/mL
same,"Lycopene content of serum, mean ± SD",[4]; [10],245 ± 083 ng/mL
same,"Lycopene content of serum, Median",[4]; [11],152 ng/mL
same,"Lycopene content of serum, Range",[4]; [11],081 to 207 ng/mL
same,"Lycopene content of serum, mean ± SD",[4]; [11],145 ± 053 ng/mL
same,"Lycopene content of serum, Median",[4]; [12],160 ng/mL
same,"Lycopene content of serum, Range",[4]; [12],134 to 230 ng/mL
same,"Lycopene content of serum, mean ± SD",[4]; [12],168 ± 036 ng/mL
same,"Lycopene content of serum, Median","[4]; male, Group 2 (512 mg/kg diet)",225 ng/mL
same,"Lycopene content of serum, Range","[4]; male, Group 2 (512 mg/kg diet)",148 to 326 ng/mL
same,"Lycopene content of serum, mean ± SD","[4]; male, Group 2 (512 mg/kg diet)",227 ± 068 ng/mL
same,"Lycopene content of serum, Median","[4]; male, Group 3 (256 mg/kg diet)",285 ng/mL
same,"Lycopene content of serum, Range","[4]; male, Group 3 (256 mg/kg diet)",174 to 372 ng/mL
same,"Lycopene content of serum, mean ± SD","[4]; male, Group 3 (256 mg/kg diet)",278 ± 066 ng/mL
same,"Lycopene content of serum, Median","[4]; male, Group 4 (128 mg/kg diet)",215 ng/mL
same,"Lycopene content of serum, Range","[4]; male, Group 4 (128 mg/kg diet)",153 to 328 ng/mL
same,"Lycopene content of serum, mean ± SD","[4]; male, Group 4 (128 mg/kg diet)",231 ± 064 ng/mL
same,"Lycopene content of serum, Median","[4]; male, Group 5 (51 mg/kg diet)",177 ng/mL
same,"Lycopene content of serum, Range","[4]; male, Group 5 (51 mg/kg diet)",100 to 238 ng/mL
same,"Lycopene content of serum, mean ± SD","[4]; male, Group 5 (51 mg/kg diet)",171 ± 049 ng/mL
same,"Lycopene content of prostate gland, Median",[5]; Group 1 (1280 mg/kg diet),99 ng/g
same,"Lycopene content of prostate gland, Range",[5]; Group 1 (1280 mg/kg diet),79 to 112 ng/g
same,"Lycopene content of prostate gland, mean ± SD",[5]; Group 1 (1280 mg/kg diet),97 ± 17 ng/g
same,"Lycopene content of prostate gland, Median",[5]; Group 2 (512 mg/kg diet),83 ng/g
same,"Lycopene content of prostate gland, Range",[5]; Group 2 (512 mg/kg diet),54 to 147 ng/g
same,"Lycopene content of prostate gland, mean ± SD",[5]; Group 2 (512 mg/kg diet),95 ± 48 ng/g
same,"Lycopene content of prostate gland, Median",[5]; Group 3 (256 mg/kg diet),35 ng/g
same,"Lycopene content of prostate gland, Range",[5]; Group 3 (256 mg/kg diet),23 to 93 ng/g
same,"Lycopene content of prostate gland, mean ± SD",[5]; Group 3 (256 mg/kg diet),50 ± 37 ng/g
same,"Lycopene content of prostate gland, Median",[5]; Group 4 (128 mg/kg diet),52 ng/g
same,"Lycopene content of prostate gland, Range",[5]; Group 4 (128 mg/kg diet),26 to 77 ng/g
same,"Lycopene content of prostate gland, mean ± SD",[5]; Group 4 (128 mg/kg diet),52 ± 26 ng/g
same,"Lycopene content of prostate gland, Median",[5]; Group 5 (51 mg/kg diet),47 ng/g
same,"Lycopene content of prostate gland, Range",[5]; Group 5 (51 mg/kg diet),32 to 63 ng/g
same,"Lycopene content of prostate gland, mean ± SD",[5]; Group 5 (51 mg/kg diet),47 ± 16 ng/g
same,difference in liver α-tocopherol between controls and the highest lycopene dose,[6]; female rats,4 fold
same,Liver α-tocopherol,"[6]; Group 1, lycopene 1280 mg/kg diet",47 μg/gm
same,Liver α-tocopherol,"[6]; Group 3, lycopene 256 mg/kg diet",39 μg/gm
same,Liver α-tocopherol,"[6]; Group 4, lycopene 128 mg/kg diet",46 μg/gm
same,Liver α-tocopherol,"[6]; Group 5, lycopene 51 mg/kg diet",32 μg/gm
same,24 hr fecal lycopene,[7]; [13],"5,406 μg"
same,Fecal lycopene,[7]; [13],"3,754 μg/g"
same,Fecal lycopene,[7]; organic extraction,"2,992 μg/g"
same,24 hr fecal lycopene,[7]; organic extraction,"4,309 μg"
same,% Efficiency (fecal output/input),[7]; organic extraction,44%
